We go through 15 molecules from ChEMBL document CHEMBL1201862, “PubChem BioAssay data set” (2004).

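Compound exposure: 48 hours, 5 concentrations, 96-well plates. GI50: concentration for 50% inhibition of growth.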 Activity calls are given as the source filed them. Cut-off read from the data, not from the text of the source: active = GI50 up to about 1.1 µM and inactive = higher.

Some test systems named below: ACHN; HCT-15; HOP-92; MOLT-4; NCI-H23; NCI-H522; OVCAR-3; OVCAR-5; RXF 393; SK-OV-3; UACC-257; HCT-116; HT-29; NCI-H226; SF-539; A498.
Holding throughout (experiment): growth of human tumour cells (NCI), 48 h

As to `CCN(CC)CC1c2ccccc2C(CNc2ccccc2)N1C` (configuration not stated), the GI50 with ACHN is > 100 µM (inactive); in the assay on HCT-15, above 100 µM; in the assay on HOP-92, 30.1 µM (inactive); in the assay on MOLT-4, 80.4 µM (inactive); with NCI-H23, > 100 µM (inactive); with NCI-H522 it was > 100 µM (inactive). For the same molecule, the GI50 in the assay on OVCAR-3, in the assay with OVCAR-5, in the assay on RXF 393, in the assay on SK-OV-3 and with UACC-257 was > 100 µM (inactive) in each case.

In the case of `O=C(N/C=C/C=C/Sc1ccccc1)OCc1ccccc1`, the GI50 in the assay on ACHN is 27.2 µM (inactive); in the assay with HCT-116, 18.2 µM (inactive); with HCT-15, 18.1 µM; with HOP-92, 23.2 µM (inactive); with HT-29 it was 17.5 µM (inactive); with MOLT-4, 15.4 µM (inactive). Moreover, the GI50 with NCI-H226 is 19.9 µM (inactive); with NCI-H23, 22.7 µM (inactive); with NCI-H522 it was 16.1 µM (inactive); in the assay with OVCAR-3 it was 17.3 µM (inactive); in the assay with OVCAR-5, 14.3 µM (inactive); with RXF 393, 20.1 µM (inactive). In addition, the GI50 in the assay on SF-539 is 16.5 µM (inactive); with SK-OV-3, 33.8 µM (inactive); with UACC-257, 18.7 µM (inactive).

For the molecule `O=C(O)/C=C\C(=O)Nc1ccc(S(=O)(=O)c2ccc(NC(=O)/C=C\C(=O)O)cc2)cc1`, the GI50 with ACHN is > 100 µM (inactive); with HCT-116, > 100 µM (inactive); with HCT-15 it was above 100 µM; with HOP-92, > 100 µM (inactive); with HT-29, > 100 µM (inactive); with MOLT-4, > 100 µM (inactive). Besides, the GI50 with NCI-H226, with NCI-H23, in the assay on NCI-H522, with OVCAR-3, with OVCAR-5 and with SF-539 was > 100 µM (inactive) throughout. The GI50 in the assay on SK-OV-3 and with UACC-257 was > 100 µM (inactive) throughout.

On to `Cc1ccc(S(=O)(=O)C(C#N)c2nc3ccccc3nc2N2CCOCC2)cc1` (configuration not stated), for which the GI50 in the assay with A498 is 53.7 µM (inactive); with ACHN, 30.3 µM (inactive); in the assay on HCT-116, 18.2 µM (inactive); in the assay on HCT-15, 31 µM; with MOLT-4, 19.2 µM (inactive); in the assay with NCI-H226 it was > 100 µM (inactive). Moreover, the GI50 is 21.8 µM (inactive) with NCI-H23; 18.7 µM (inactive) in the assay on NCI-H522; 33.8 µM (inactive) in the assay on OVCAR-3; > 100 µM (inactive) in the assay on OVCAR-5; 38.8 µM (inactive) with SF-539; 61.5 µM (inactive) in the assay with SK-OV-3. For the same molecule, the GI50 in the assay on UACC-257 is 33.8 µM (inactive).

`NNC(=O)C(=O)N/N=C1\CCCC1C(=O)CCC(=O)Nc1cccc(Cl)c1` (configuration not stated): the GI50 in the assay on ACHN, with HCT-116, with HOP-92, with HT-29, with MOLT-4 and in the assay with NCI-H226 was > 100 µM (inactive) throughout. Further, the GI50 in the assay on NCI-H23, in the assay on OVCAR-3, in the assay on OVCAR-5, in the assay with RXF 393 and in the assay on UACC-257 was > 100 µM (inactive) throughout.

As for `N#Cc1cccc(-n2[nH]c(=O)ccc2=O)c1`, the GI50 in the assay on ACHN was > 100 µM (inactive); in the assay on HCT-116, > 100 µM (inactive); in the assay on HCT-15, above 100 µM; in the assay on HOP-92, > 100 µM (inactive); with HT-29, > 100 µM (inactive); in the assay with MOLT-4 it was > 100 µM (inactive). For the same molecule, the GI50 in the assay on NCI-H226, in the assay on NCI-H23, in the assay on NCI-H522, in the assay with OVCAR-3, in the assay on OVCAR-5 and in the assay with SF-539 was > 100 µM (inactive) throughout. Also, the GI50 with UACC-257 was > 100 µM (inactive).

For `N#CC(NNC(=O)c1ccccc1O)c1cccc(O)c1` (configuration not stated), the GI50 with ACHN is 2.31 µM (inactive); with HCT-116, 3.26 µM (inactive); with HCT-15, 5.31 µM; in the assay with HOP-92 it was 4.25 µM (inactive); in the assay with HT-29, 37.6 µM (inactive); with MOLT-4 it was 58.2 µM (inactive). Besides, the GI50 is 11.5 µM (inactive) in the assay on NCI-H226; 2.9 µM (inactive) with NCI-H23; 9.73 µM (inactive) in the assay with NCI-H522; 13 µM (inactive) with OVCAR-3; 54.7 µM (inactive) with OVCAR-5; 1.78 µM (inactive) in the assay with RXF 393. The GI50 is 2.93 µM (inactive) in the assay on SF-539, 3.93 µM (inactive) in the assay with SK-OV-3 and 10.1 µM (inactive) with UACC-257.

Regarding `C#CCn1c(=O)c2cccnc2n(CC#C)c1=O`, the GI50 with ACHN was > 100 µM (inactive); with HCT-116, > 100 µM (inactive); with HCT-15, above 100 µM; in the assay with HOP-92 it was > 100 µM (inactive); with HT-29, > 100 µM (inactive); with MOLT-4 it was > 100 µM (inactive). For the same molecule, the GI50 in the assay on NCI-H226, in the assay with NCI-H23, in the assay with NCI-H522, in the assay on OVCAR-5, with RXF 393 and in the assay on SK-OV-3 was > 100 µM (inactive) each time. In the assay with UACC-257, the GI50 is > 100 µM (inactive).

For `COCN1C(=O)C2CC(/C=C/C(N)=O)=CN2C(=O)c2ccccc21` (configuration not stated), the GI50 with HCT-116, in the assay on HT-29, in the assay with MOLT-4, in the assay with NCI-H226, in the assay on NCI-H23 and with NCI-H522 was > 100 µM (inactive) throughout. The GI50 in the assay on OVCAR-3, with RXF 393, in the assay on SF-539 and with SK-OV-3 was > 100 µM (inactive) throughout.

Turning to `COc1cc(CC2C(=O)OCC2[C@@H](OC(C)=O)c2ccc3c(c2)OCO3)c(Br)c(OC)c1OC` (some centres not stated), the GI50 was 99.8 µM (inactive) with ACHN; 76.7 µM (inactive) in the assay with HCT-116; 19.1 µM with HCT-15; 12 µM (inactive) in the assay with HOP-92; 35.9 µM (inactive) with HT-29; 35.2 µM (inactive) with MOLT-4. The GI50 in the assay on NCI-H23 was 68.9 µM (inactive); with NCI-H522 it was 26.5 µM (inactive); with OVCAR-3, 59.2 µM (inactive); in the assay with RXF 393, 51.3 µM (inactive); in the assay on SF-539, > 100 µM (inactive); with SK-OV-3 it was > 100 µM (inactive). For the same molecule, the GI50 in the assay with UACC-257 is 69.5 µM (inactive).

On to `CN(CCO)c1nc(=O)c2c(n1C1OC(CO)C(O)C(O)C1O)CCCC2` (configuration not stated), for which the GI50 was > 100 µM (inactive) in the assay on ACHN; > 100 µM (inactive) in the assay with HCT-116; above 100 µM with HCT-15; > 100 µM (inactive) in the assay with HOP-92; > 100 µM (inactive) with HT-29; > 100 µM (inactive) in the assay on MOLT-4. Besides, the GI50 with NCI-H226, in the assay on NCI-H23, in the assay on NCI-H522, in the assay with OVCAR-3, in the assay with OVCAR-5 and in the assay on RXF 393 was > 100 µM (inactive) throughout. Moreover, the GI50 in the assay on SF-539, in the assay with SK-OV-3 and in the assay on UACC-257 was > 100 µM (inactive) throughout.

With `COc1ccc(-c2cc(C(=O)Nc3ccc(C)c(C)c3)nc(NC#N)n2)cc1`, the GI50 with A498 was > 100 µM (inactive); with ACHN, > 100 µM (inactive); with HCT-116 it was > 100 µM (inactive); in the assay with HCT-15, above 100 µM; with HT-29, > 100 µM (inactive); in the assay on MOLT-4 it was > 100 µM (inactive). The GI50 in the assay with NCI-H23, with NCI-H522, with OVCAR-3, in the assay with OVCAR-5, with RXF 393 and with SF-539 was > 100 µM (inactive) throughout. For the same molecule, the GI50 in the assay with SK-OV-3 and in the assay on UACC-257 was > 100 µM (inactive) in each case.

`Cn1cc(NC(=O)c2cc(NC(=O)CCCCCCC(=O)Nc3cc(C(=O)Nc4cc(C(=O)NCCC(=N)N)n(C)c4)n(C)c3)cn2C)cc1C(=O)NCCC(=N)N`: the GI50 with A498 is 1.93 µM (inactive); in the assay with ACHN, 8.85 µM (inactive); in the assay with HCT-116 it was 8.53 µM (inactive); in the assay on HCT-15, 32 µM; in the assay on HOP-92, > 100 µM (inactive); in the assay with HT-29 it was 73.6 µM (inactive). In addition, the GI50 in the assay with NCI-H23 was 3.91 µM (inactive); in the assay with OVCAR-3 it was 24.5 µM (inactive); in the assay with OVCAR-5, > 100 µM (inactive); in the assay on RXF 393 it was 17 µM (inactive); in the assay with SF-539, 14.1 µM (inactive); with SK-OV-3, > 100 µM (inactive). Also, the GI50 in the assay on UACC-257 is 2.2 µM (inactive).

Take `c1cc(-c2cn3ccsc3n2)ccn1`: the GI50 with A498 was > 100 µM (inactive); with ACHN, > 100 µM (inactive); with HCT-116, > 75.5 µM (inactive); in the assay with HCT-15 it was above 44.2 µM; in the assay with HOP-92, > 100 µM (inactive); with HT-29, > 100 µM (inactive). In addition, the GI50 in the assay on MOLT-4, in the assay on NCI-H226, in the assay on NCI-H23, in the assay on NCI-H522, with OVCAR-3 and in the assay on OVCAR-5 was > 100 µM (inactive) each time. The GI50 in the assay on SF-539, in the assay on SK-OV-3 and in the assay on UACC-257 was > 100 µM (inactive) throughout.

Consider `O=[N+]([O-])c1ccc(-c2noc(-c3ccccc3)c2C2=NCCN2)cc1`, for which the GI50 in the assay with ACHN was > 100 µM (inactive); in the assay with HCT-116 it was 30.1 µM (inactive); with HCT-15, above 100 µM; in the assay on HT-29, 52.1 µM (inactive); in the assay with MOLT-4, > 100 µM (inactive); in the assay with NCI-H226 it was 75.2 µM (inactive). Besides, the GI50 is 20.5 µM (inactive) in the assay on NCI-H522; 28.6 µM (inactive) in the assay with OVCAR-3; > 100 µM (inactive) with OVCAR-5; 38.6 µM (inactive) with RXF 393; 42.7 µM (inactive) in the assay with SF-539; 41.2 µM (inactive) in the assay on UACC-257.
